Test results taken from patent US5476866A, “Isoxazoles” (Roussel Uclaf, priority 1993, dated 1995).

Experiments:
[1] = Kinetic data: plasma concentrations after oral administration to mice; assay type: in vivo; settings: 30 mg/kg oral; for half-life: mouse, plasma concentrations monitored for 72 hours, read-out: metabolic half-life (converted); for metabolic half-life relative to the known compound: fraction of known compound's half-life (approximately 21.4 hours)
Description: A comparison was made between a known compound, namely 5 -cyclopropyl-N-(4-trifluoromethylphenyl)-isoxazole-4-carboxamide and the compounds of the present invention, namely compounds of Examples 5 and 6 above. The compounds were administered orally to mice at doses of 30 mg/kg and plasma concentrations were monitored for 72 hours.

[2] = tested on: Delayed-type hypersensitivity rat paw oedema; assay: Delayed-type hypersensitivity rat paw oedema (Test 3); assay type: in vivo, male rats CFHB; settings: daily days 4-6, twice day 7, 24 h after antigen challenge
[3] = tested on: Delayed-type hypersensitivity mouse paw oedema; assay: Delayed-type hypersensitivity mouse paw oedema (DTH-M) (Test 2); assay type: in vivo, male mice CD-1; settings: daily days 4-6, twice day 7, 24 h after MBSA challenge
Description: Delayed-type hypersensitivity mouse paw oedema (DTH-M) (Test 2)
Groups of 8 to 10 male mice CD-1 with a weight range of 25-30 g were sensitized by the subcutaneous injection of 1 mg of methylated bovine serum albumin (MBSA) in 0.2 ml volumes of saline/Freund's complete adjuvant (FCA) emulsion. Negative control groups received injections of saline/FCA emulsion. DTH paw oedema responses were assessed twenty-four hours after the right hind foot pad challenge with 0.1 mg of MBSA in 0.05 ml volumes of saline on day seven after sensitization. Contralateral paws received control saline injections. The test compounds or control vehicles were orally administered daily on days four, five, six and twice on day seven, one hour before and six hours after MBSA challenge.

Adjuvant arthritis = Adjuvant arthritis (Test 4); assay type: in vivo, male rats of a Wistar-Lewis strain; settings: 25 mg/kg p.o. once daily for 12 days from day of immunization; vs untreated control
Description: Adjuvant arthritis (Test 4) The investigations were carried out by the method of Pearson (Arthrit. Rheum., Vol. 2, (1959) p. 44). The experimental animals used were male rats of a Wistar-Lewis strain having a body weight between 130 to 200 g. The compounds to be tested were administered orally once daily for 12 days, starting on the day of immunization. The animals of a control group received only the vehicle. Each preparation and control group comprised 6 animals. The criterion used to determine activity was the percentage reduction in the increase in paw volume compared to that of the untreated control group.

[4] = tested on: Reverse Passive Arthus Reaction; assay: Reverse Passive Arthus Reaction (Test 5); assay type: in vivo, male or female Wistar rats; settings: paw volume at 4 h
Description: Reverse Passive Arthus Reaction (Test 5)
One hour before challenge, test compounds were administered orally to male or female Wistar rats weighing 120-200 g. After this pre-treatment period, the reaction was induced by a subplantar injection of goat anti-rat serum in the right hind paw. The left hind paw, which served as a control, was injected with saline alone. Paw volumes were determined immediately and four hours after antibody challenge. Doses are given in units of mg/kg p.o.

[5] = tested on: Carrageenan rat paw oedema; assay: Carrageenan rat paw oedema (Test 1); assay type: in vivo, male rats CFHB; settings: 50 mg/kg p.o.; 1 h before carrageenan; oedema assessed 3 h later
Description: Carrageenan rat paw oedema (Test 1)
One hour after the oral administration of the test compounds or control vehicle to groups of 6 to 12 male rats CFHB with a weight range of 160-180 g, 1 mg of carrageenan dissolved in 0.2 ml of saline was injected into the right hind foot pad. Contralateral paws received control saline injections and paw oedema responses were assessed three hours later.

[6] = 50 mg/kg p.o. 1 h before challenge
[7] = 100 mg/kg p.o. 1 h before challenge

Row | SMILES | half-life [1] | Test 3 % inhibition ([2]; 50 mg/kg p.o.) | Test 2 % inhibition ([3]; 100 mg/kg p.o.) | Test 4 % inhibition (percentage reduction in the increase in paw volume) (Adjuvant arthritis) | Test 5 % inhibition [4, 6] | Test 5 % inhibition [4, 7] | Test 1 % inhibition [5] | Test 3 % inhibition ([2]; 10 mg/kg p.o.) | Test 2 % inhibition ([3]; 30 mg/kg p.o.) | metabolic half-life relative to the known compound [1]
1 | O=C(Nc1ccc(C(F)(F)F)cc1)c1cnoc1C1CC1 [5-cyclopropyl-N-(4-trifluoromethylphenyl)-isoxazole-4-carboxamide, reference compound] | ~21.4 h | – | – | – | – | – | – | – | – | –
2 | Cc1cc(NC(=O)c2cnoc2C2CC2)ccc1Br [Example 1, 5-cyclopropyl-N-(4-bromo-3-methylphenyl)-isoxazole-4-carboxamide] | – | 24% | 41% | -16% | 42% | 26% | 12% | – | – | –
3 | O=C(Nc1ccc([N+](=O)[O-])cc1)c1cnoc1C1CC1 [Example 2, 5-cyclopropyl-N-(4-nitrophenyl)-isoxazole-4-carboxamide] | – | 52% | 19% | 92% | -9% | 27% | 0% | – | – | –
4 | N#Cc1ccc(NC(=O)c2cnoc2C2CC2)cc1 [Example 3, 5-cyclopropyl-N-(4-cyanophenyl)-isoxazole-4-carboxamide] | – | – | – | 90% | 41% | 36% | 43% | 60% | 43% | –
5 | Cc1cc(NC(=O)c2cnoc2C2CC2)ccc1Cl [Example 4, 5-cyclopropyl-N-(4-chloro-3-methylphenyl)-isoxazole-4-carboxamide] | – | 32% | 64% | 22% | 17% | 28% | 11% | – | – | –
6 | Cc1cc(NC(=O)c2cnoc2C2CC2)ccc1C#N [Example 5, 5-cyclopropyl-N-(4-cyano-3-methylphenyl)-isoxazole-4-carboxamide] | 7.1 h | – | – | 88% | 23% | 34% | 18% | 62% | 41% | about one third
7 | Cc1cc(NC(=O)c2cnoc2C2CC2)ccc1C(F)(F)F [Example 6, 5-cyclopropyl-N-(3-methyl-4-trifluoromethylphenyl)-isoxazole-4-carboxamide] | 8.2 h | 57% | 34% | 42% | 24% | 38% | 12% | – | – | about one third
